The values below come from BindingDB's records for doi:10.1021/jm00168a028 (University of Minnesota, 1990).

The Ki is a dissociation constant, usually derived from enzyme kinetics or from competition with a known ligand. Lower therefore signals a stronger hold on the target.

Where a SMILES comes first, the peptide text is derived from it. [ ]: non-standard residue; d: D form. The star is where a group is joined. Tyr(Nα,Nα-allyl2) = C=CCN(CC=C)[C@@H](Cc1ccc(O)cc1)C(=O)*; Aib = CC(C)(N)C(=O)O

Assay [1] is described as follows: Binding affinity was measured by the displacement of [3H]- DADLE in guinea pig brain membrane of opioid receptor delta.
Assay [2] is described as follows: Binding affinity was measured by the displacement of [3H]- DADLE in guinea pig brain membrane of Opioid receptor delta 1. On the technique in general: Loss of bound radioactivity is the signal in a displacement assay; it reports binding, not function.
Assay in assay [3]: as above
The source holds these as a separate data set.

Take `COc1ccc2c3c1O[C@H]1c4[nH]c5ccccc5c4C[C@@]4(O)[C@@H](C2)N(CC2CC2)CC[C@]314` [22-cyclopropylmethyl-16-methoxy-(2S,13R)-14-oxa-11,22-diazaheptacyclo[13.9.1.01,13.02,21.04,12.05,10.019,25]pentacosa-4(12),5(10),6,8,15(25),16,18-heptaen-2-ol(HCl1.5H2O)]: the Ki in assay [1] and in assay [2] was 40 nM in each case. On to `C=CCN(CC=C)[C@@H](Cc1ccc(O)cc1)C(=O)NC(C)(C)C(=O)NC(C)(C)C(=O)N[C@@H](Cc1ccccc1)C(=O)N[C@@H](CC(C)C)C(=O)O` [ICI-174864] ({Tyr(Nα,Nα-allyl2)}-[Aib][Aib]FL-OH), for which the affinity in assay [3] corresponds to a Ki of 35 nM. In the case of `CN1CC[C@]23c4c5ccc(O)c4O[C@H]2c2[nH]c4ccccc4c2C[C@@]3(O)[C@H]1C5`, the Ki in assay [2] was 0.7 nM.
